In patent publication US7109329B2, “Neurologically active compounds and compounds with multiple activities” (priority 1988, dated 2006):
Like-named read-outs stand apart in the source and are kept apart here.

Assays:
[1] = Activities and properties of the compounds (Table III codes listed as Specific Properties in Table IV)
Excerpt: Certain of the compounds produce a profound hypothermia, but without anesthetizing. […] Table III, following, sets forth a list of the other properties of these guanidino compounds, which arise from their alpha-adrenergic agonist activity, combined with any inherent activity of the reactants chosen to achieve the final compound.
Except for items numbered 22 and 24–28 in Table III, substantially all of the guanidino compounds of this invention, as a result of their structure-activity relationship, are potent with respect to all of the above activities. However, as would be expected, various compounds have different, higher levels of, activities and properties which are listed as “Specific Properties”, with the Compounds numbered, in Table IV, below, according to the numbers in Tables I and II.

[2] = Reversal of guanabenz-induced anesthesia and hypothermia by antagonists; type: in vivo, rat
Protocol: The effect can also be partially reversed, or reversed in stages, if desired, by administering several smaller aliquots of the antagonist.
Room temperature was 21.5° C. […] The control rats, injected only with the carrier dextrose solution, maintained a relatively constant temperature during the entire test period under identical conditions of the test.

[3] = codes of Table III, higher levels of activity
[4] = guanabenz-treated rats (4 mg I.P.), Yohimbine 10 mg I.P.
[5] = six anesthetized rats also injected with aminophylline, then tolazoline

1,2-Bis(theophylline-7-acetamido)-ethane [Compound 164]
Specific Properties [1]: 3, 15, anesthesia antagonist

2-(2,6-Diisopropylanilino)-2-methyleneimidazole [Compound 101]
Specific Properties ([1]; codes of Table III, […]): adrenergic antagonist

2-(3,4,5-Trimethoxybenzylidineamino)-2-methylbenzimidazole [Compound 100]
Specific Properties [1, 3]: adrenergic antagonist

3-(Guanidinoacetoxy)-estrone [Compound 148]
Specific Properties [1]: 27

3-(PGE2carbonyl)-3-estrone ester [Compound 156]
Specific Properties [1]: 27 (some agonist activity)

4-4′-(1,2-Diethyl-1,2-ethenediyl)-4-guanidinoacetoxyphenyl-4′-(6-hydroxy-2,5,7,8-tetramethylchroman-2-carbonyl)-phenol ester [Compound 143]
Specific Properties ([1]; codes of Table III, […]): 27 (Estrogenic antagonist (breast cancer treatment))

4-(PGE2carbonylphenyl)-4-4′(1,2-diethyl-1,2-ethenediyl)-4-phenol [Compound 157]
Specific Properties ([1]; codes of Table III, […]): 27 (some agonist activity)

5-Methoxy-2-methyl-3-indoleacetamidoguanidine [Compound 103]
Specific Properties ([1]; codes of Table III, […]): 5

7-(3,5-Dichorophenylhydrazido)-7-acetyltheophylline [Compound 102]
Specific Properties ([1]; codes of Table III, […]): 3, 14, 16, 17 antagonist

17-(PGE1carbonyl)-17-cyproterone ester [Compound 154]
Specific Properties ([1]; codes of Table III, […]): 26 (Androgenic antagonist)

17-[2-6-(N-1-Aminophthalazino-1-amidopropionyl)-2,5,7,8-tetramethylchroman-2-carbonyl]-17-cyproterone ester [Compound 140]
Specific Properties [1, 3]: 26 (ESP Topical to treat male pattern

Cl.Cn1c(=O)c2c(ncn2CC(=O)Nc2nc(N)nc(NC(=O)C[N+](C)(C)C)n2)n(C)c1=O [Compound 31, 2-(Amino)-4-(1-carboxamido-N,N,N-trimethylmethaniminium)-6-(theophylline-7-acetamido)-1,3,5-s-triazine]
Specific Properties [1, 3]: 2, 3, 15, cholinergic

C[N+](C)(C)CCOC(=O)CNC(=N)N [Compound 32]
Specific Properties ([1]; codes of Table III, […]): 1, 15, cholinergic

N=C(N)NNC(=O)Cc1c[nH]c2ccc(O)cc12 [Compound 38, 5-Hydroxyindole-3-acetamidoguanidine]
Specific Properties [1, 3]: 5

COc1cc(CC(=O)Oc2ccc3[nH]cc(CCN)c3c2)cc(OC)c1OC [Compound 74, 5-(3,4,5-Trimethoxyphenylacetoxy)-tryptamine]
Specific Properties ([1]; codes of Table III, […]): 5

Cn1c(=O)c2c(ncn2CC(=O)NCc2nc3ccccc3[nH]2)n(C)c1=O [Compound 96, 2-(Theophylline-7-acetamido)-2-methylbenzimidazole]
antagonism of both the hypothermic and anesthetic effects of guanidino compounds ([2]; rat, in vivo): reverse both the hypothermic and anesthetic effects | Specific Properties [1, 3]: 3, adrenergic antagonist, 12

Cn1c(=O)c2c(ncn2CC(=O)NC(=O)c2ccc(C(=N)N)cc2)n(C)c1=O [Compound 97, 4-(Amidino)-N-(theophylline-7-acetyl)-benzamide]
antagonism of both the hypothermic and anesthetic effects of guanidino compounds ([2]; rat, in vivo): reverse both the hypothermic and anesthetic effects | Specific Properties [1, 3]: 3, 2, 2, antagonist, 12

COc1cc(N=Cc2ncc[nH]2)cc(OC)c1OC [Compound 98]
Specific Properties [1, 3]: adrenergic antagonist

N=C(N)c1ccc(C(=O)NC(=O)Cc2c(Cl)cccc2Cl)cc1 [Compound 99, 4-(Amidino)-N-(2,6-dichlorophenylacetyl)-benzamide]
Specific Properties [1, 3]: adrenergic antagonist

COc1cc(CNC(=O)CNC(=N)N)ccc1O [Compound 104, N-(4-Hydroxy-3-methoxybenzyl)-guanidinoacetamide]
Specific Properties [1, 3]: 2 (Antispasticity and muscle relaxant)

CC/C(=C(/CC)c1ccc(OC(=O)CNC(=N)N)cc1)c1ccc(OC(=O)CNC(=N)N)cc1 [Compound 127, 4,4′-(1,2-Diethyl-1,2-ethenediyl)bis-phenoldiguanidinoacetate ester]
Specific Properties [1, 3]: 27 (Estrogenic antagonist (breast cancer treatment))

CC/C(=C(/CC)c1ccc(OC(=O)C2(C)CCc3c(C)c(OC(=O)CNC(=N)N)c(C)c(C)c3O2)cc1)c1ccc(O)cc1 (stereo not drawn) [Compound 128, 2-[4,4′-(1,2-Diethyl-1,2-ethenediyl)phenol]-6-(guanidinoacetoxy)-2,5,7,8-tetramethylchroman-2-carbonyl-2-phenol ester]
Specific Properties [1, 3]: 27 (Estrogenic antagonist (breast cancer treatment))

CC(=O)[C@@]1(OC(=O)CNC(=N)N)CCC2C3C=C(Cl)C4=CC(=O)C5C[C@@H]5C4(C)C3CCC21C (stereo partly drawn) [Compound 129, 6-Chloro-1,2,Dihydro-17-guanidinoacetoxy-3′H-cyclopropa[1,2]pregna-1,4,6-triene-3,20-dione]
Specific Properties ([1]; codes of Table III, […]): 26 (Androgenic antagonist)

Cc1c(C)c2c(c(C)c1O)CCC(C)(C(=O)Nc1ccc(C(=O)NNC(=N)N)cc1)O2 (stereo not drawn) [Compound 135, 4-N-(G-Hydroxy-2,5,7,8-tetramethylchroman-2-carboxamido)-4-benzamidoguanidine]
Specific Properties [1, 3]: 9–15

CC1(N=Cc2c(Cl)cccc2Cl)N=c2ccccc2=N1 [Compound 162, 2-(2,6-Dichlorobenzylideneamino)-2-methyl-benzimidazole]
Specific Properties [1, 3]: 14, 17 adrenergic antagonist, 22, 23

CC(C)c1cccc(C(C)C)c1C=NCC(=N)N [Compound 163, 2,6-Diisopropylbenzylideneaminomethylamidine]
Specific Properties [1, 3]: 14, 17, adrenergic antagonist, 22, 23

CCCCCC(O)/C=C/C1C(O)CC(=O)[C@@H]1CCCCCCCC(=O)OCC(O)COC(=O)CCCCCCC[C@H]1C(=O)CC(O)C1/C=C/C(O)CCCCC (stereo partly drawn) [Compound 170, 1,3-Di-PGE1-2-propanol-ester]
Specific Properties [1, 3]: 8, 9, 12, Vasodilator

CC(=O)[C@@]1(OC(=O)CNC(=N)N)CCC2C3C=C(C)C4=CC(=O)CCC4(C)C3CCC21C (stereo partly drawn) [Compound 184, 17-(Guanidinoacetoxy)-megostrol]
Specific Properties [1, 3]: 27, Progestin, androgenic

CC(=O)[C@@]1(OC(=O)CNC(=N)N)CCC2C3CC(C)C4=CC(=O)CCC4(C)C3CCC21C (stereo partly drawn) [Compound 185, 17-(Guanidinoacetoxy)-medroxyprogesterone]
Specific Properties [1, 3]: 27, Progestin, androgenic

CC(=O)[C@@]1(OC(=O)CNC(=N)N)CCC2C3CCC4=CC(=O)CCC4(C)C3CCC21C (stereo partly drawn) [Compound 186, 17-(Guanidinoacetoxy)-progesterone]
Specific Properties [1, 3]: 1927, Progestin, androgenic

CC/C(=C(\c1ccccc1)c1ccc(OC(=O)CNC(=N)N)cc1)c1ccccc1 [Compound 187, [Z]-2-[4-(1,2-Diphenyl-1-butenyl)-phenoxy]-guanidineacetate ester]
Specific Properties [1, 3]: 27, Progestin

N=C(N)c1ccc(OCCCCCOc2ccc(C(=N)N)cc2)cc1 [Compound 192, 4,4′-[Pentanediylbis(oxy)]bis-benzenecarboximidamide, reference compound]
Specific Properties [1, 3]: 1, 2, 8–10, 15, 29 Adrenergic antagonist

[H]/N=C(\N/C(=N/[H])Nc1ccc(Cl)cc1)NC(C)C [Compound 217, reference compound]
Specific Properties [1, 3]: 1, 4, 6–9, 16, 17, 19 antimalarial

N=C(N)c1ccc(C(=O)NC(c2ccccc2)c2ccccc2)cc1 [Compound 223, N-(Diphenylmethyl)-4-(amidino)-Benzamide]
Specific Properties [1, 3]: 1, 2, 4, 6, 9, 10, 14, 15, 17, 23, 29 Adrenergic

N=C(N)c1ccc(C(=O)NC(=O)CCCCC2SCC3NC(=O)NC32)cc1 (stereo not drawn) [Compound 233, N-(Hexahydro-2-oxo-1H-thieno[3,4-d]-imidazole-4-pentanoyl)-4-amidinobenzamide]
Specific Properties [1, 3]: 1, 2, 4, 6, 9, 10, 14, 15, 17, 23, 29 Antialopecia,

C=CCN1CC[C@]23c4c5ccc(O)c4O[C@H]2C(=O)CC[C@@]3(O)[C@H]1C5 [Naloxone]
antagonism of both the hypothermic and anesthetic effects of guanidino compounds ([2]; rat, in vivo): not found to be a useful antagonist

COC(=O)[C@@H]1[C@H]2C[C@H]3c4[nH]c5ccccc5c4CCN3C[C@@H]2CC[C@@H]1O [Yohimbine]
effect on guanabenz-induced anesthesia [2, 4]: brought out of anesthesia | effect on guanabenz-induced hypothermia (body temperature) [2, 4]: hypothermia was simultaneously reversed | antagonism of both the hypothermic and anesthetic effects of guanidino compounds ([2]; rat, in vivo): reverse both the hypothermic and anesthetic effects

c1ccc(CC2=NCCN2)cc1 [tolazoline]
antagonism of the hypothermic effect substantially without reducing the anesthetized condition ([2]; rat, in vivo): effect-specific alpha2-antagonists | reversal of anesthesia-hypothermia induced by guanabenz [2, 5]: completely reversed | time until anesthesia-hypothermia reversed and body temperature normal [2, 5]: ≤ 25 min

Bis(3,17-PGE2carbonyl)-estradiole ester [Compound 158]
Specific Properties [1, 3]: 27 (Estrogenic antagonist (breast cancer treatment))

Bis(3,17-guanidinoacetoxy)estradiaole [Compound 147]
Specific Properties [1, 3]: 27 (Estrogenic antagonist (breast cancer treatment))

Guanidinamidocarbonyl-1-cholinepentanoic acid ester [Compound 167]
Specific Properties [1, 3]: Adrenergic, cholinergic, 22, 23

N-(2,6-Dichlorbenzylidene)-3-(5-hydroxyindole)ethylamine [Compound 78]
Specific Properties ([1]; codes of Table III, […]): 5

N-(PGE1carboxamido)-1-aminophthalazine [Compound 152]
Specific Properties ([1]; codes of Table III, […]): 6–11 (anti-impotence)

N-(PGE1carboxamido)-guanidine [Compound 151]
Specific Properties ([1]; codes of Table III, […]): 6–11 (anti-impotence)

N-[(6-PGE1carbonyl)-2,5,7,8-tetramethylchroman-2-carboxamido]-1-aminophthlazine [Compound 153]
Specific Properties ([1]; codes of Table III, […]): 6–11 (anti-impotence)
